From US6485756B1, “Stable, homogeneous natural product extracts containing polar and apolar fractions” (Collaborative Technologies, Inc., priority 1999, dated 2002)
Where “and” joins values, the source holds several entries; their conditions need not be identical. Equal values may be shown once.

Key:
Human Leukocyte Elastase = target: T1, Human Leukocyte Elastase (Homo sapiens, UniProt P08246); details: Ying et al., Biochem. J. 1991; cited from earlier work
T1 sequence (P08246 30-267): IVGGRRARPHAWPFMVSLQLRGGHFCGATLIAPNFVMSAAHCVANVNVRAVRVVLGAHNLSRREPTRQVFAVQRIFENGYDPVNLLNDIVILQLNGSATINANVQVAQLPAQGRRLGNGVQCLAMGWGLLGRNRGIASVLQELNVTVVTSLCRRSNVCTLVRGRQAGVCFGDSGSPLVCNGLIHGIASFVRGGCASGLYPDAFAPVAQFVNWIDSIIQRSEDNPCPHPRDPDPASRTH

Lipid Peroxidation assay = format: biochemical; details: for OD532 at indicated time (min) 0: 0 min; for OD532 at indicated time (min) 60: 60 min; for OD532 at indicated time (min) 120: 120 min; for OD532 at indicated time (min) 240: 240 min
Protocol: Lipid Peroxidation Assay Thiobarbituric acid (“TBA”; […]), sodium dodecyl sulfate ([…]), butylated hydroxytoluene (B1378), […]) and phosphate-buffered saline (“PBS”; 1000-3) were obtained from Sigma. Lecithin (429415) was obtained from Calbiochem. Ethanol (122898) was obtained from Aaper Alcohol and Chemical Co. Vitamin C (95209) was obtained from Fluka. Ferric chloride (AR5029) was obtained from Mallinckrodt. Optical densities were determined using a SpectraMax 250 spectrophotometer (Molecular Devices). Ultraviolet irradiation was performed using a model VWR […] Chromato-Vue transilluminator (VWR Scientific). The Lipid Peroxidation assay measures inhibition of UV-induced lipid oxidation. The reaction was performed at room temperature by irradiating liposome solutions, containing varying concentrations of test samples, with ultraviolet C light. The extent of lipid peroxidation induced by the UV light was determined by measuring the consequent production of malondialdehyde that results from breakdown of oxidized lipid. […] Vitamin C, a peroxyl radical scavenger, was included in each assay as a control for inhibition of lipid oxidation. Duplicate aliquots of the irradiation mixtures were harvested at several time points and their malondialdehyde contents were measured using the “thiobarbituric acid reaction”. […] The mixtures were heated at 100° C. for 15 minutes, cooled to room temperature and their absorbencies were read at 532 and 650 nm. The readings at 650 nm were subtracted from those at 532 nm to correct for turbidity. These corrected absorbencies were plotted as a function of irradiation time and the rate of lipid peroxidation was determined by linear regression curve fit.

Cloudman S91 melanocytes = experiment: Melanocyte pigmentation assay; format: cell-based; details: conc. 30 μm; positive control
Protocol: Melanocyte Pigmentation Assay
The following materials were used in the melanocyte pigmentation assay. Cloudman S91 cells (36-1-38C8-16) were obtained from American Type Culture Collection. Dulbecco's Modified Eagle's Medium (“DMEM”; 11885-076), heat-inactivated horse serum (26050-088), heat-inactivated fetal bovine serum (10082-147) and 5000 units/ml penicillin/50 μg/ml streptomycin (15070-063) were obtained from Gibco BRL. Phosphate-buffered saline (PBS; 1000-3), dimethyl sulfoxide (D2650), hydroquinone (H9003), α-melanocyte stimulating hormone (M4135), trichloroacetic acid (T9159) and sodium hydroxide (S8045) were obtained from Sigma. Optical densities were determined using a Dynatech MR5000 spectrophotometer.
The melanocyte pigmentation assay measures a test sample's ability to inhibit pigmentation. […] After a 5-day treatment period with each condition tested in triplicate wells, the cells were harvested by washing with PBS and adding 5% trichloroacetic acid to each well. […] 200 μl of each digestion mixture was then transferred to a well of a 96-well microtiter plate and optical densities were read at 405 nm.
Inhibition of pigmentation is expressed as the percentage decrease in optical density compared to that for untreated cells (no test sample or hydroquinone). […]

[1] = system: Dopa Oxidase Activity of a Mushroom Tyrosinase; details: Shin et al., BBRC 1998; cited from earlier work

## C[C@H]1[C@H](C)CC[C@]2(C(=O)O)CC[C@]3(C)C(=CC[C@@H]4[C@@]5(C)CC[C@H](O)C(C)(C)[C@@H]5CC[C@]43C)[C@H]12 [Ursolic acid]
Human Leukocyte Elastase
  elastase inhibition (in words): potent elastase inhibitor

## O=C1O[C@H]([C@@H](O)CO)C(O)=C1O [Vitamin C]
Lipid Peroxidation assay; Sample conc. 0.03 %
  % antioxidant effect: 82% and 90%
  Rate of Lipid Peroxidation: 54 MOD532/min and 30 MOD532/min
  OD532 at indicated time (min) 0: 0.012 and 0.014
  OD532 at indicated time (min) 60: 0.013 and 0.0125
  OD532 at indicated time (min) 120: 0.016 and 0.014
  OD532 at indicated time (min) 240: 0.025 and 0.0205
Lipid Peroxidation assay; Sample conc. 0.3 %
  % antioxidant effect: 97% and 99%
  OD532 at indicated time (min) 0: 0.011
  OD532 at indicated time (min) 60: 0.012 and 0.011
  OD532 at indicated time (min) 120: 0.013 and 0.011
  OD532 at indicated time (min) 240: 0.012

## Oc1ccc(O)cc1 [hydroquinone]
Cloudman S91 melanocytes
  % inhibition: 28%
  Culture pigmentation (OD405nm) mean: 0.747

## Oc1cc(O)cc(/C=C/c2ccc(O)cc2O)c1 [oxyresveratrol]
[1]
  tyrosinase inhibition (in words): very potent tyrosinase inhibitor
